Patent US20230203095A1, “BIOLOGICAL PEPTIDE FOR TREATING LUNG DISEASES AND APPLICATION THEREOF” (SHANGHAI INSTITUTE OF PHARMACEUTICAL INDUSTRY CO., LTD., priority 2019, published 2023)
Square brackets hold non-standard residues; d marks the D form. Peptide text beside a SMILES is read from it.

Test system: OVA-induced asthma model mice
Assay: Lung function (inspiratory airway resistance, lung compliance) in OVA-induced allergic asthma model mice
Type: in vivo, BALB/c mice
Conditions: for Inspiratory airway resistance / Lung compliance: n=10
Procedure: The second batch: mice were divided into groups, 10 mice in each group, namely: blank control group (normal saline), model group (OVA, dose of 20 ug/mouse), SP peptide group (administered dose of 87.5 µg/kg body weight/ day, 175 µg/kg body weight/day, 350 µg/kg body weight/day, respectively), SIPI-D00 peptide group (administered dose of 87.5 µg/kg body weight/day, 175 µg/kg body weight/day, 350 µg/kg body weight/day), and Dexamethasone group (administered dose of 2 mg/kg body weight/day).
Mice in the model group, SP peptide group, SIPI-D00 peptide group and dexamethasone group were sensitized by intraperitoneal injection of OVA (20 µg OVA/mice) on day 0, 7, and 14, and challenged by aerosol administration of OVA (once a day for 5 consecutive days) on day 21-25 to construct asthmatic model animals. Mice in the model group were given normal saline on days 21-28; mice in different doses of SP peptide group and SIPI-D00 peptide group were injected subcutaneously with different doses of SP and SIPI-D00 on days 19-28; mice in dexamethasone group were injected intraperitoneally with 2 mg/kg/day dexamethasone on days 21-28. At the same time, 10 mice in the blank control group were fed normally from day 0 to day 28 without any treatment, and were given normal saline as a blank control.
On the 28th day, the mice were anesthetized with tracheal intubation and jugular vein intubation, and the inspiratory airway resistance and lung compliance were measured in each group of animals. Each animal was given fold increasing amounts of methacholine via the jugular vein: 0.025 mg/kg, 0.05 mg/kg, 0.1 mg/kg, 0.2 mg/kg. After each dose was given, the lung compliance curve was recorded continuously for 5 minutes, and the inspiratory airway resistance and lung compliance were calculated. […]
At the same time, 10 mice in the blank control group were fed normally from day 0 to day 28 without any treatment, and were given normal saline as a blank control.

[1] = 87.5 ug/kg/day s.c., methacholine 0 mg/kg
[2] = 87.5 ug/kg/day s.c., methacholine 0.025 mg/kg
[3] = 87.5 ug/kg/day s.c., methacholine 0.05 mg/kg
[4] = 87.5 ug/kg/day s.c., methacholine 0.1 mg/kg
[5] = 87.5 ug/kg/day s.c., methacholine 0.2 mg/kg
[6] = 175 ug/kg/day s.c., methacholine 0 mg/kg
[7] = 175 ug/kg/day s.c., methacholine 0.025 mg/kg
[8] = 175 ug/kg/day s.c., methacholine 0.05 mg/kg
[9] = 175 ug/kg/day s.c., methacholine 0.1 mg/kg
[10] = 175 ug/kg/day s.c., methacholine 0.2 mg/kg
[11] = 350 ug/kg/day s.c., methacholine 0 mg/kg
[12] = 350 ug/kg/day s.c., methacholine 0.025 mg/kg
[13] = 350 ug/kg/day s.c., methacholine 0.05 mg/kg
[14] = 350 ug/kg/day s.c., methacholine 0.1 mg/kg
[15] = 350 ug/kg/day s.c., methacholine 0.2 mg/kg

In the case of `C[C@H](O)[C@@H](NC(=O)[C@@H](Cc1ccc(O)cc1)NC(=O)[C@H](NC(=O)[C@@H](CO)NC(=O)CN)[C@H](C)O)C(=O)N[C@H](CCC(N)=O)C(=O)NCC(=O)O` [SIPI-D00, GSTYTQG] (H-G[dS][dT][dY][dT][dQ]G-OH), the Inspiratory airway resistance [1] is reported as 1.00±0.00, the Lung compliance [1] is reported as 1.00±0.00 and the Inspiratory airway resistance [2] is reported as 1.32±0.32. The Lung compliance [2] was 0.80±0.18, the Inspiratory airway resistance [3] was 1.64±0.35 and the Lung compliance [3] was 0.64±0.14. It also gave an Inspiratory airway resistance [4] of 1.86±0.43, a Lung compliance [4] of 0.57±0.13 and an Inspiratory airway resistance [5] of 2.05±0.51. For the same compound, the Lung compliance [5] was 0.52±0.13, the Inspiratory airway resistance [6] was 1.00±0.00 and the Lung compliance [6] was 1.00±0.00. The Inspiratory airway resistance [7] was 1.21±0.15, the Lung compliance [7] was 0.84±0.10 and the Inspiratory airway resistance [8] was 1.35±0.18. For the same compound, the Lung compliance [8] was 0.75±0.10, the Inspiratory airway resistance [9] was 1.47±0.21 and the Lung compliance [9] was 0.69±0.093. The Inspiratory airway resistance [10] was 1.58±0.34, the Lung compliance [10] was 0.65±0.12 and the Inspiratory airway resistance [11] was 1.00±0.00. It also gave a Lung compliance [11] of 1.00±0.00, an Inspiratory airway resistance [12] of 1.28±0.30 and a Lung compliance [12] of 0.83±0.14. For the same compound, the Inspiratory airway resistance [13] was 1.43±0.35, the Lung compliance [13] was 0.70±0.19 and the Inspiratory airway resistance [14] was 1.61±0.47. For the same compound, the Lung compliance [14] was 0.55±0.18, the Inspiratory airway resistance [15] was 1.74±0.51 and the Lung compliance [15] was 0.49±0.19. The “inspiratory phase resistance (in words)” value (compared with the model group) was “significantly decreased” and the “lung compliance (in words)” value (compared with the model group) was “significantly increased”.
